These molecules were tested on RAW264.7 (assay: Inhibition of LPS-induced NO production in mouse RAW264.7 cells incubated for 24 hrs by Griess reagent based assay). Settings: RAW264.7, 24 h.
Assay type: functional, cell-based
For C=C1C(=O)O[C@H]2C[C@@H](C)[C@@H]3[C@@H](OC(C)=O)C[C@H](OC(C)=O)[C@@]3(C)[C@@H](O)[C@H]12, the IC50 was 2500 nM. Work on COc1ccc2c(c1)c(CC(=O)O)c(C)n2C(=O)c1ccc(Cl)cc1 [INDOMETHACIN] yielded an IC50 of 11600 nM. In the case of C=C1C(=O)O[C@H]2C[C@@H](C)[C@@H]3[C@@H](OC(C)=O)C[C@H](O)[C@]3(C)[C@@H](OC(C)=O)[C@H]12, the IC50 is reported as 3200 nM. For C=C1C(=O)O[C@H]2C[C@@H](C)[C@@H]3CC[C@H](O)[C@@]3(C)C[C@H]12 [PSEUDOGUAIANOLIDE], the IC50 was 2500 nM. Molecule C=C1C(=O)O[C@H]2C[C@H](C)[C@@H]3[C@@H](OC(C)=O)C[C@H](O)[C@@]3(C)C[C@H]12 has an IC50 of 2800 nM. C=C1C(=O)O[C@H]2C[C@@H](C)[C@@H]3[C@H](OC(C)=O)C[C@H](O)[C@@]3(C)[C@@H](O)[C@H]12 gave an IC50 of 15400 nM. For C=C1C(=O)O[C@@H]2C[C@H](C)C(CCC(C)=O)=CC[C@H]12 [TOMENTOSIN], the IC50 was 2000 nM. Molecule C=C1C(=O)O[C@@H]2CC(C)=C([C@@H](C)CCCOC(C)=O)[C@@H](OC(=O)C[C@H](C)CC)[C@H]12 has an IC50 of 6600 nM.

— ChEMBL document CHEMBL4715735, “Sesquiterpenes from Inula japonica with Inhibitory Effects on Nitric Oxide Production in Murine Macrophage RAW 264.7 Cells” (J Nat Prod, 2016)
